# System: MAVER-1 mantle cell lymphoma (MCL) subcutaneous xenograft
# Assay: MAVER-1 MCL subcutaneous xenograft model
# Assay type: in vivo, NCG mice
# Description: MAVER-1 cells are of mantle cell lymphoma (MCL) origin and were obtained from American Type Culture Collection (ATCC CRL-3008, Manassas, VA, DC, USA). Cells were grown in RPM 1640 medium (Corning, Cat #10-040-CVR), supplemented with 10% (v/v) fetal bovine serum (Gibco, Cat #10099-141C), and 100 μg/mL of penicillin and streptomycin (Gibco, Cat #15140-122). MAVER-1 cells were maintained as suspension cell cultures at 37° C. in a 5% CO2 atmosphere. Five to six-week-old female NCG mice were purchased from Gempharmatech of Information Technology Center. All animals were maintained under specific pathogen free (SPF) “full barrier” condition with free access to food and water. Mice were group-housed under a 12 h light:dark cycle (lights on at 08:00 h), at a temperature of 21-26° C. and 44-61% humidity in IVC cages (Lingyunboji (Beijing) Technology Co., Ltd.). Mice were fed with complete granulated feed with Co60 radiosterilization (Beijing Ke Ao Xie Li Feed Co., Ltd.).
# On the day of implantation, MAVER-1 cells were harvested and re-suspended with appropriate volume of ice cold DPBS and same volume of Matrigel (Corning, Cat #356237) to give a final concentration of 1.5×10^7 cells/mL. Re-suspended cells were placed on ice prior to inoculation. The right front flank region of each mouse was cleaned with 75% ethanol prior to cell inoculation. Each animal was injected subcutaneously with 3×10^6 cells in 200 μL of cell suspension in the right front flank via a 26-gauge needle. After implantation, primary tumor volume was measured in two dimensions using a caliper.
# Animals were randomly assigned into 7 groups with 10 mice per group according to body weight and tumor volume (100 mm^3-200 mm^3). The groups consisted of vehicle group, 5, 15 mg/kg of venetoclax with QD dosing, 5, 15 mg/kg of Compound 1 with QD dosing, and 2.5, 7.5 mg/kg of Compound 1 with BID dosing. Treatments were administered by oral gavage (p.o.) in a volume of 10 mL/kg body weight. Body weight was assessed immediately before dosing and volume dosed was adjusted accordingly.
# Individual body weight was recorded twice weekly, with mice being monitored daily for clinical signs of toxicity for the duration of the study. Mice were euthanized using carbon dioxide when their tumor volume reached 2,000 mm^3, the tumor was ulcerated, or body weight loss exceeded 20%.
# Tumor volume was calculated using the formula: V=0.5×(a×b^2) where a and b are the long and short diameters of the tumor, respectively. Tumor growth inhibition (TGI) was calculated using the following formula: % TGI=100×[1−(treatedt−treatedt0)/(vehiclet−vehiclet0)] (treated t=treated tumor volume at time t, treated t0=treated tumor volume at time 0, vehicle t=vehicle tumor volume at time t and vehicle t0=vehicle tumor volume at time 0)
Structure (SMILES),Mean Tumor volume (Day 14) (mm^3 ± SEM) (2.5 mg/kg BID × 17 p.o.) [mm^3],TGI (Day 14) (2.5 mg/kg BID × 17 p.o.) [%],Mean Tumor volume (Day 14) (mm^3 ± SEM) (5 mg/kg QD × 17 p.o.) [mm^3],TGI (Day 14) (5 mg/kg QD × 17 p.o.) [%],Mean Tumor volume (Day 14) (mm^3 ± SEM) (7.5 mg/kg BID × 17 p.o.) [mm^3],TGI (Day 14) (7.5 mg/kg BID × 17 p.o.) [%],Mean Tumor volume (Day 14) (mm^3 ± SEM) (15 mg/kg QD × 17 p.o.) [mm^3],TGI (Day 14) (15 mg/kg QD × 17 p.o.) [%],"tumor growth suppression (in words) (mouse, in vivo)",anti-tumor activity relative to venetoclax (same total daily doses of 5 and 15 mg/kg)
"CC(C)c1ccccc1[C@@H]1CCCN1C1CC2(CCN(c3ccc(C(=O)NS(=O)(=O)c4ccc(NCC5CCC(C)(O)CC5)c([N+](=O)[O-])c4)c(Oc4cnc5[nH]ccc5c4)c3)CC2)C1 (stereo partly drawn) [Compound 1, 2-((1H-pyrrolo[2,3-b]pyridin-5-yl)oxy)-N-((4-((((1r,4r)-4-hydroxy-4-methylcyclohexyl)methyl)amino)-3-nitrophenyl)sulfonyl)-4-(2-((S)-2-(2-isopropylphenyl)pyrrolidin-1-yl)-7-azaspiro[3.5]nonan-7-yl)benzamide]",511.5 ± 49.9,77,383.5 ± 29.6,86,136.2 ± 2.6,103,140.5 ± 5.3,103,potently suppressed tumor growth in a dose-dependent manner,showed more anti-tumor activities relative to venetoclax
"CC1(C)CCC(CN2CCN(c3ccc(C(=O)NS(=O)(=O)c4ccc(NCC5CCOCC5)c([N+](=O)[O-])c4)c(Oc4cnc5[nH]ccc5c4)c3)CC2)=C(c2ccc(Cl)cc2)C1 [Venetoclax, reference compound]",,,1082.1 ± 109.4,38,,,315.4 ± 23.1,91,,
